Each structure is given as a SMILES string.

One assay concerns AGS cells (KRAS^G12D). Briefly: Detection of cell proliferation in vitro by MTT/MTS method (cell activity experiment). The class given is cell-based. Conditions: AGS cells; MTT/MTS; 3 days of drug treatment; read-out: AGS IC50. The method in brief: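 After 3-day compound exposure (final DMSO 0.5%), viability of AGS (KRAS G12D) cells, plated 1000/well one day before dosing, was measured at 490 nm following 4 h MTT or MTS incubation. IC50 was fitted from dose–effect curves relative to DMSO-treated wells.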
For orientation: Tetrazolium dyes change colour on reduction, which living cells bring about.
As a reminder, the IC50 is the concentration that inhibits the measured activity by half. As to `Oc1cc2c(c(-c3ncc4c(N5C[C@H]6CC[C@@H](C5)N6)nc(OC[C@@]56CCCN5C[C@H](F)C6)nc4c3F)c1)CCCC2` [Example 419, 4-(4-((1R,5S)-3,8-diazabicyclo[3.2.1]octan-3-yl)-8-fluoro-2-(((2R,7aS)-2-fluorotetrahydro-1H-pyrrolizin-7a(5H)-yl)methoxy)pyrido[4,3-d]pyrimidin-7-yl)-5,6,7,8-tetrahydronaphthalen-2-ol], the 50% inhibitory concentration (IC50) was 14 nM.

The assay is the same for the next values; noted with them: Homo sapiens, AGS, 72 h, AGS cells; MTT/MTS; 3 days of drug treatment; read-out: AGS IC50.
In the case of `Oc1cc2c(c(C3=C(F)c4nc(OC[C@@]56CCCN5C[C@H](F)C6)nc(N5C[C@H]6CC[C@@H](C5)N6)c4C4=NCCN43)c1)CCCC2` [Example 406, 4-(10-((1R,5S)-3,8-diazabicyclo[3.2.1]octan-3-yl)-6-fluoro-8-(((2R,7aS)-2-fluorotetrahydro-1H-pyrrolizin-7a(5H)-yl)methoxy)-2,3-dihydroimidazo[1′,2′:1,2]pyrido[4,3-d]pyrimidin-5-yl)-5,6,7,8-tetrahydronaphthalen-2-ol], the IC50 was 120 nM. The same measure, in the same setting: next, `CC1CCCc2cc(O)cc(C3=C(F)c4nc(OC[C@@]56CCCN5C[C@H](F)C6)nc(N5C[C@H]6CC[C@@H](C5)N6)c4C4=NCCN43)c21` (stereo partly drawn) [Example 407, 4-(10-((1R,5S)-3,8-diazabicyclo[3.2.1]octan-3-yl)-6-fluoro-8-(((2R,7aS)-2-fluorotetrahydro-1H-pyrrolizin-7a(5H)-yl)methoxy)-2,3-dihydroimidazo[1′,2′:1,2]pyrido[4,3-d]pyrimidin-5-yl)-5-methyl-5,6,7,8-tetrahydronaphthalen-2-ol]: 35 nM. The same measure, in the same setting: next, `CCC1CCc2cc(O)cc(C3=C(F)c4nc(OC[C@@]56CCCN5C[C@H](F)C6)nc(N5C[C@H]6CC[C@@H](C5)N6)c4C4=NCCN43)c21` (stereo partly drawn) [Example 408, 7-(10-((1R,5S)-3,8-diazabicyclo[3.2.1]octan-3-yl)-6-fluoro-8-(((2R,7aS)-2-fluorotetrahydro-1H-pyrrolizin-7a(5H)-yl)methoxy)-2,3-dihydroimidazo[1′,2′:1,2]pyrido[4,3-d]pyrimidin-5-yl)-1-ethyl-2,3-dihydro-1H-inden-5-ol]: 41 nM; `CCC1c2c(C3=C(F)c4nc(OC[C@@]56CCCN5C[C@H](F)C6)nc(N5C[C@H]6CC[C@@H](C5)N6)c4C4=NCCN43)cc(O)cc2C2CC21` (stereo partly drawn) [Example 409, 5-(10-((1R,5S)-3,8-diazabicyclo[3.2.1]octan-3-yl)-6-fluoro-8-(((2R,7aS)-2-fluorotetrahydro-1H-pyrrolizin-7a(5H)-yl)methoxy)-2,3-dihydroimidazo[1′,2′:1,2]pyrido[4,3-d]pyrimidin-5-yl)-6-ethyl-1,1a,6,6a-tetrahydrocyclopropa[a]inden-3-ol]: 45 nM; `CC1OCCc2cc(O)cc(C3=C(F)c4nc(OC[C@@]56CCCN5C[C@H](F)C6)nc(N5C[C@H]6CC[C@@H](C5)N6)c4C4=NCCN43)c21` (stereo partly drawn) [Example 410, 8-(10-((1R,5S)-3,8-diazabicyclo[3.2.1]octan-3-yl)-6-fluoro-8-(((2R,7aS)-2-fluorotetrahydro-1H-pyrrolizin-7a(5H)-yl)methoxy)-2,3-dihydroimidazo[1′,2′:1,2]pyrido[4,3-d]pyrimidin-5-yl)-1-methylisochroman-6-ol]: 75 nM. In the case of `CCc1ccc2cc(O)cc(C3=C(F)c4nc(OC[C@@]56CCCN5C[C@H](F)C6)nc(N5C[C@H]6CC[C@@H](C5)N6)c4C4=NCCN43)n12` [Example 412, 5-(10-((1R,5S)-3,8-diazabicyclo[3.2.1]octan-3-yl)-6-fluoro-8-(((2R,7aS)-2-fluorotetrahydro-1H-pyrrolizin-7a(5H)-yl)methoxy)-2,3-dihydroimidazo[1′,2′:1,2]pyrido[4,3-d]pyrimidin-5-yl)-3-ethylindolizin-7-ol], the half-maximal inhibitory concentration (IC50) came to 35 nM. Same read-out and setting: next, `CC1CCCc2cc(O)cc(-c3c(F)c4nc(OC[C@@]56CCCN5C[C@H](F)C6)nc(N5C[C@H]6CC[C@@H](C5)N6)c4c4nccn34)c21` (stereo partly drawn) [Example 414, 4-(10-((1R,5S)-3,8-diazabicyclo[3.2.1]octan-3-yl)-6-fluoro-8-(((2R,7aS)-2-fluorotetrahydro-1H-pyrrolizin-7a(5H)-yl)methoxy)imidazo[1′,2′:1,2]pyrido[4,3-d]pyrimidin-5-yl)-5-methyl-5,6,7,8-tetrahydronaphthalen-2-ol]: 45 nM; `CCC1CCc2cc(O)cc(-c3c(F)c4nc(OC[C@@]56CCCN5C[C@H](F)C6)nc(N5C[C@H]6CC[C@@H](C5)N6)c4c4nccn34)c21` (stereo partly drawn) [Example 415, 7-(10-((1R,5S)-3,8-diazabicyclo[3.2.1]octan-3-yl)-6-fluoro-8-(((2R,7aS)-2-fluorotetrahydro-1H-pyrrolizin-7a(5H)-yl)methoxy)imidazo[1′,2′:1,2]pyrido[4,3-d]pyrimidin-5-yl)-1-ethyl-2,3-dihydro-1H-inden-5-ol]: 60 nM.

For the compound `CCc1c(F)ccc2cc(O)cc(-c3c(F)c4nc(OC[C@@]56CCCN5C[C@H](F)C6)nc(N5C[C@H]6CC[C@@H](C5)N6)c4c4cncn34)c12` [Example 416, 4-(1-((1R,5S)-3,8-diazabicyclo[3.2.1]octan-3-yl)-5-fluoro-3-(((2R,7aS)-2-fluorotetrahydro-1H-pyrrolizin-7a(5H)-yl)methoxy)imidazo[1′,5′:1,2]pyrido[4,3-d]pyrimidin-6-yl)-5-ethyl-6-fluoronaphthalen-2-ol], the IC50 turned out to be 28 nM. Consider `CC1CCCc2cc(O)cc(-c3c(F)c4nc(OC[C@@]56CCCN5C[C@H](F)C6)nc(N5C[C@H]6CC[C@@H](C5)N6)c4c4cncn34)c21` (stereo partly drawn) [Example 417, 4-(1-((1R,5S)-3,8-diazabicyclo[3.2.1]octan-3-yl)-5-fluoro-3-(((2R,7aS)-2-fluorotetrahydro-1H-pyrrolizin-7a(5H)-yl)methoxy)imidazo[1′,5′:1,2]pyrido[4,3-d]pyrimidin-6-yl)-5-methyl-5,6,7,8-tetrahydronaphthalen-2-ol], for which the IC50 worked out at 35 nM. As for `CCC1CCc2cc(O)cc(-c3c(F)c4nc(OC[C@@]56CCCN5C[C@H](F)C6)nc(N5C[C@H]6CC[C@@H](C5)N6)c4c4cncn34)c21` (stereo partly drawn) [Example 418, 7-(1-((1R,5S)-3,8-diazabicyclo[3.2.1]octan-3-yl)-5-fluoro-3-(((2R,7aS)-2-fluorotetrahydro-1H-pyrrolizin-7a(5H)-yl)methoxy)imidazo[1′,5′:1,2]pyrido[4,3-d]pyrimidin-6-yl)-1-ethyl-2,3-dihydro-1H-inden-5-ol], the 50% inhibitory concentration (IC50) was determined as 75 nM.

With `Oc1cc2c(c(-c3ccc4c(N5C[C@H]6CC[C@@H](C5)N6)nc(OC[C@@]56CCCN5C[C@H](F)C6)nc4c3F)c1)CCCC2` [Example 420, 4-(4-((1R,5S)-3,8-diazabicyclo[3.2.1]octan-3-yl)-8-fluoro-2-(((2R,7aS)-2-fluorotetrahydro-1H-pyrrolizin-7a(5H)-yl)methoxy)quinazolin-7-yl)-5,6,7,8-tetrahydronaphthalen-2-ol], the IC50 worked out at 60 nM.

Turning to `CC1CCCc2cc(O)cc(-c3ncc4c(NCC5(N(C)C)CCC5)nc(OC[C@@]56CCCN5C[C@H](F)C6)nc4c3F)c21` (stereo partly drawn) [Example 421, 4-(4-(((1-(dimethylamino)cyclobutyl)methyl)amino)-8-fluoro-2-(((2R,7aS)-2-fluorotetrahydro-1H-pyrrolizin-7a(5H)-yl)methoxy)pyrido[4,3-d]pyrimidin-7-yl)-5-methyl-5,6,7,8-tetrahydronaphthalen-2-ol], the IC50 turned out to be 26 nM. Still for that read-out and setting: next, `CCC1CCCc2cc(O)cc(-c3ncc4c(NCC5(N(C)C)CCC5)nc(OC[C@@]56CCCN5C[C@H](F)C6)nc4c3F)c21` (stereo partly drawn) [Example 422, 4-(4-(((1-(dimethylamino)cyclobutyl)methyl)amino)-8-fluoro-2-(((2R,7aS)-2-fluorotetrahydro-1H-pyrrolizin-7a(5H)-yl)methoxy)pyrido[4,3-d]pyrimidin-7-yl)-5-ethyl-5,6,7,8-tetrahydronaphthalen-2-ol]: 35 nM; `CCC1CCc2cc(O)cc(-c3ncc4c(NCC5(N(C)C)CCC5)nc(OC[C@@]56CCCN5C[C@H](F)C6)nc4c3F)c21` (stereo partly drawn) [Example 423, 7-(4-(((1-(dimethylamino)cyclobutyl)methyl)amino)-8-fluoro-2-(((2R,7aS)-2-fluorotetrahydro-1H-pyrrolizin-7a(5H)-yl)methoxy)pyrido[4,3-d]pyrimidin-7-yl)-1-ethyl-2,3-dihydro-1H-inden-5-ol]: 55 nM. On the same count and under the same terms, the value for `C#Cc1nccc2cc(O)cc(-c3ncc4c(NCC5(N(C)C)CCC5)nc(OC[C@@]56CCCN5C[C@H](F)C6)nc4c3F)c12` [Example 424, 8-(4-(((1-(dimethylamino)cyclobutyl)methyl)amino)-8-fluoro-2-(((2R,7aS)-2-fluorotetrahydro-1H-pyrrolizin-7a(5H)-yl)methoxy)pyrido[4,3-d]pyrimidin-7-yl)-1-ethynylisoquinolin-6-ol] was 30 nM; that for `CSC1CCCc2cc(O)cc(-c3ncc4c(N5C[C@H]6CC[C@@H](C5)N6)nc(OC[C@@]56CCCN5C[C@H](F)C6)nc4c3F)c21` (stereo partly drawn) [Example 426, 4-(4-((1R,5S)-3,8-diazabicyclo[3.2.1]octan-3-yl)-8-fluoro-2-(((2R,7aS)-2-fluorotetrahydro-1H-pyrrolizin-7a(5H)-yl)methoxy)pyrido[4,3-d]pyrimidin-7-yl)-5-(methylthio)-5,6,7,8-tetrahydronaphthalen-2-ol] was 15 nM. The same measure, in the same setting: the value for `CC1CCCc2cc(O)cc(-c3ccc4c(NCC5(N(C)C)CCC5)nc(OC[C@@]56CCCN5C[C@H](F)C6)nc4c3F)c21` (stereo partly drawn) [Example 427, 4-(4-(((1-(dimethylamino)cyclobutyl)methyl)amino)-8-fluoro-2-(((2R,7aS)-2-fluorotetrahydro-1H-pyrrolizin-7a(5H)-yl)methoxy)quinazolin-7-yl)-5-methyl-5,6,7,8-tetrahydronaphthalen-2-ol] was 55 nM. As to `CCC1CCCc2cc(O)cc(-c3ccc4c(NCC5(N(C)C)CCC5)nc(OC[C@@]56CCCN5C[C@H](F)C6)nc4c3F)c21` (stereo partly drawn) [Example 428, 4-(4-(((1-(dimethylamino)cyclobutyl)methyl)amino)-8-fluoro-2-(((2R,7aS)-2-fluorotetrahydro-1H-pyrrolizin-7a(5H)-yl)methoxy)quinazolin-7-yl)-5-ethyl-5,6,7,8-tetrahydronaphthalen-2-ol], the IC50 turned out to be 70 nM.

(Values after patent publication US20240300980A1, “HETEROCYCLIC COMPOUNDS AS KRAS INHIBITOR, AND PREPARATION THEREFOR AND USE THEREOF IN TREATMENT” (SHANGHAI KECHOW PHARMA, INC., priority 2021, published 2024).)
